Test results from US6387909B1, “Thienopyranecarboxamide derivatives” (Recordati S.A. Chemical and Pharmaceutical Company, priority 1999, dated 2002).
Read-outs that look alike come from different tables or passages of the source.

Experiments:
diastolic blood pressure [1] = conditions: dog, i.v.; data from Leonardi et al. 1997; cited from earlier work
[2] = system: prostatic urethral contractions induced by noradrenaline; conditions: dog, i.v.; data from Leonardi et al. 1997; cited from earlier work
[3] = target: T1, human 5-HT1A-serotoninergic receptor (Homo sapiens, UniProt P08908); test: Radioligand binding ([3H]8-OH-DPAT) to cloned 5-HT1A receptor in HeLa cell membranes; conditions: read-out: Affinity (Ki) 5-HT1A
T1 construct: expressed in transfected cells; host or cells: HeLa
T1 sequence (P08908 1-422): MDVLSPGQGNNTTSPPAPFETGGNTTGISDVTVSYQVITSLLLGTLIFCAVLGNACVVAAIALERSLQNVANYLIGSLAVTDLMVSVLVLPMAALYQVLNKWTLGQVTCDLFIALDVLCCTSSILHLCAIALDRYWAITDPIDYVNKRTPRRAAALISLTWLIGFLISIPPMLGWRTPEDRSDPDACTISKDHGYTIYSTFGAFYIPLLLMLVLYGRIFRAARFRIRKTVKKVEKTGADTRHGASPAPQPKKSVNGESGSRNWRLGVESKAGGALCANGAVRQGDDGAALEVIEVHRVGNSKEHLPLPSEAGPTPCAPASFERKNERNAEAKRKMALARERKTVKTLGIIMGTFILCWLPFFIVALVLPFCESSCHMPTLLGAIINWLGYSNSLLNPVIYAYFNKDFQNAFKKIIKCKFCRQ
Description: HeLa cells were grown as monolayers in Dulbecco's modified Eagle's medium (DMEM), supplemented with 10% fetal calf serum and gentamicin (100 μg/mL), at 37° C. in 5% CO2. The cells were detached from the growth flask at 95% confluence by a cell scraper and were lysed in a buffer containing ice cold 5 mM Tris, 5 mM EDTA (pH 7.4). The homogenates were centrifuged at 40,000×g for 20 minutes and the membranes were resuspended in a small volume of ice-cold buffer containing 5 mM Tris and 5 mM, EDTA (pH 7.4), and immediately frozen and stored at −70° C. until use.
Non-specific binding was determined in the presence of 10 μM 5-HT. Incubation was stopped by addition of ice-cold Tris buffer and rapid filtration through Schleicher & Schuell GF52 filters that had been pretreated with 0.2%-polyethyleneimine.
(§1) Data were expressed as mean of Ki.

[4] = target: T2, recombinant α1d-adrenoceptor (Homo sapiens, UniProt P25100); test: Radioligand binding ([3H]prazosin) to cloned α1d adrenoceptor; conditions: read-out: Affinity (Ki) α1d
T2 construct: expressed in transfected cells
T2 sequence (P25100 1-572): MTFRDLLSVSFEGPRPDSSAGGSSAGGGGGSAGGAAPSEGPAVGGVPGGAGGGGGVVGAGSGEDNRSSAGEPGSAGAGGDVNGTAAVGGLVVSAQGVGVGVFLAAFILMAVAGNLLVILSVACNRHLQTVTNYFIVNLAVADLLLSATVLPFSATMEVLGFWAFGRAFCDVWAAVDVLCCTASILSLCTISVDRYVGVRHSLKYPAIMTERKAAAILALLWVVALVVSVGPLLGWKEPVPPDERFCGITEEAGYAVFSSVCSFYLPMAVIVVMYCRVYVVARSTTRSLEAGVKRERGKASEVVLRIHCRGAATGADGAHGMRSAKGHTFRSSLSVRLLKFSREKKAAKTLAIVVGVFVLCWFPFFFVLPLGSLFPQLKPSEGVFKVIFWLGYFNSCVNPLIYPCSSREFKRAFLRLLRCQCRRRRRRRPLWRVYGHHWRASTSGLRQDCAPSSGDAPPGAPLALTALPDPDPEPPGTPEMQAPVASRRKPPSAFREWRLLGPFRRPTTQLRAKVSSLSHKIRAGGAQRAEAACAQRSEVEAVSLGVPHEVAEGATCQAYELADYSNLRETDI
Description: (§2) Determination of affinity for cloned subtypes of the α1-adrenoceptor was performed in membranes from cells transfected by electroporation with DNA expressing the genes encoding each α1-adrenoceptor subtype.
(§3) Non-specific binding was determined in the presence of 10 μM phentolamine. Incubation was stopped by addition of ice-cold Tris buffer and rapid filtration through Schleicher & Schuell GF52 filters that had been pretreated with 0.2%-polyethyleneimine.
as §1

[5] = target: T3, recombinant α1a-adrenoceptor (Homo sapiens, UniProt P35348); test: Radioligand binding ([3H]prazosin) to cloned α1a adrenoceptor; conditions: read-out: Affinity (Ki) α1a
T3 construct: expressed in transfected cells
T3 sequence (P35348 1-466): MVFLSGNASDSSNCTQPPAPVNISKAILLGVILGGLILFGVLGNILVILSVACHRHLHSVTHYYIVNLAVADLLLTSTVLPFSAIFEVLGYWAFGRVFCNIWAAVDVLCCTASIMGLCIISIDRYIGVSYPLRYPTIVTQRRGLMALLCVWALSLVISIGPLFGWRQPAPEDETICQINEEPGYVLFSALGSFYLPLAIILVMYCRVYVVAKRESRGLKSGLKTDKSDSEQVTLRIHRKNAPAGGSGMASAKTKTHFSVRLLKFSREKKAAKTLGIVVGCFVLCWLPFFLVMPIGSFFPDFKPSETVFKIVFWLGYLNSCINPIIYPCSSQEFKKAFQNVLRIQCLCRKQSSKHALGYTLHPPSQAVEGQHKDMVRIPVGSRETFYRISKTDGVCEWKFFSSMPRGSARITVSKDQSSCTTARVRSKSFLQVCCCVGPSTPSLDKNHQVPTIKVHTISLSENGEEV
Description: as §2, §3, §1

[6] = target: T4, recombinant α1b-adrenoceptor (Homo sapiens, UniProt P35368); test: Radioligand binding ([3H]prazosin) to cloned α1b adrenoceptor; conditions: read-out: Affinity (Ki) α1b
T4 construct: expressed in transfected cells
T4 sequence (P35368 1-520): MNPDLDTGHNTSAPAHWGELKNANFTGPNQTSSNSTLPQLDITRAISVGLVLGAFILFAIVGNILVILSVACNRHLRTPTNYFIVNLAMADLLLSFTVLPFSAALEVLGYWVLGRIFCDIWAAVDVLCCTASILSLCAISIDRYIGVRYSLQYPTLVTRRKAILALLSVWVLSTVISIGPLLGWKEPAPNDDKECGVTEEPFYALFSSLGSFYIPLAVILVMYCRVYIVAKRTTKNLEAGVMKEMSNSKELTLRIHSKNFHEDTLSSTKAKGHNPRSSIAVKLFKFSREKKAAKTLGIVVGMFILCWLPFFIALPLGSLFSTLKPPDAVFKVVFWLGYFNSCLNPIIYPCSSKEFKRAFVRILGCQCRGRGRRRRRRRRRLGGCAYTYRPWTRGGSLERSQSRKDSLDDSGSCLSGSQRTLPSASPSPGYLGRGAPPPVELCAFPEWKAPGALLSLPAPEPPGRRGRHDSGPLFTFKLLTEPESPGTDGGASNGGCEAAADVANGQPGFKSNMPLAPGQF
Description: as §2, §3, §1

α1L adrenoceptor = target: T5, α1L adrenoceptor (Oryctolagus cuniculus, UniProt O02824); test: Functional antagonism of noradrenaline-induced contractions of rabbit aorta pretreated with chloroethylclonidine; assay type: biochemical; conditions: NA-induced contractions
T5 sequence (O02824 1-466): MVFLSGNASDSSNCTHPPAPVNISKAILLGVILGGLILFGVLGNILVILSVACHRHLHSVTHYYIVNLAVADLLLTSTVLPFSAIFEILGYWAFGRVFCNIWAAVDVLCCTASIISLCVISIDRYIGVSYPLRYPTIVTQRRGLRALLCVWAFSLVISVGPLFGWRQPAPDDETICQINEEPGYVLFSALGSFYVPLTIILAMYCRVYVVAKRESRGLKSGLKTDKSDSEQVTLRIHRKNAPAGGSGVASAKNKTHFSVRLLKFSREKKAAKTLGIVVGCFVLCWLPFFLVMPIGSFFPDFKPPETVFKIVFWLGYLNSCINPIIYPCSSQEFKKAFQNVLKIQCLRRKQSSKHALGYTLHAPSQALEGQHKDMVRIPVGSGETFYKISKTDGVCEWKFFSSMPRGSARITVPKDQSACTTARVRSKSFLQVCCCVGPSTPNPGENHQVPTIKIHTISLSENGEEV
Description: Adult male New Zealand rabbits were sacrificed by cervical dislocation. The aorta was removed, placed in Krebs-Henseleit buffer and dissected free of adhering tissue. […] Desmethylimipramine (0.1 μM) and corticosterone (1 μM) to block neuronal and extraneuronal uptake of NA, (±)-propranol (1 μM) to block β adrenoceptors and yohimbine (0.1 μM) to block α2 adrenoceptors were added to the buffer.
The preparations were equilibrated for 60 minutes and then primed every 30 minutes with 10 μM NA for three times. The aortic rings were then incubated with the alkylating agent chloroethylclonidine (50 μM) for 30 minutes and then washed extensively three times, over a 30 min period before constructing the NA-concentration/response curve. Following washing, tissue was re-equilibrated for 45 min. Test drug was added and after 30 minutes, a second cumulative-NA-concentration/response curve was constructed. Each antagonist concentration was tested using 2-3 aortic rings from different rabbits.
Dose ratios (i.e., the ratio between the concentrations of noradrenaline required to produce half-maximal response in the presence and in the absence of the test antagonist) were calculated at each concentration of the compounds. The logarithm of these dose ratio −1 was plotted against the logarithm of the compound concentrations (Schild plot) to evaluate the affinity constant Kb.
When only one or two concentrations of the test compounds were utilised, the apparent Kb value was calculated using the formula: Kb=[B]/(DOSE RATIO-1), where B is the antagonist concentration.

diastolic blood pressure [7] = test: Blood pressure in anaesthetized dogs after intravenous administration; assay type: in vivo; conditions: dog, i.v.
Description: (§4) The experiments were performed according to the method of Imagawa et al. (J. Pharmacol. Methods, 22:103-111, 1989), with substantial modifications, as follows: adult male beagle dogs, weighing 8-10 kg, were anaesthetized with pentobarbital sodium (30 mg/kg i.v. and 2 mg/kg/h i.v.), intubated and spontaneously ventilated with room air. In order to monitor systemic blood pressure (BP), a polyethylene (PE) catheter was introduced into the aortic arch through the left femoral artery. A collateral of the left femoral vein was cannulated for infusion of anaesthetic, and the right femoral vein was cannulated for administration of compounds. For intraarterial (i.a.) injection of noradrenaline (NA), a PE catheter was introduced into the lower portion of the abdominal aorta via the right external iliac artery. Through such procedure, NA was selectively distributed to the lower urinary tract. A paramedian vertical suprapubic incision extending from the base of the pelvis to the mid-abdominal region was made and the bladder and the prostate were exposed. The bladder was manually emptied with a syringe. Prostatic urethral pressure was monitored with a Mikro-tip catheter (5F) introduced into the bladder via the external urethral meatus, and withdrawn until the pressure transducer was positioned in the prostatic region of the urethra. A ligature was secured between the neck of the bladder and urethra to isolate the response of the latter and to avoid any interaction with the bladder. Another ligature was put around the Mikro-tip catheter at the external meatus, to secure the catheter itself.
(§5) After a stabilizing period following the surgical procedure (30 minutes), in which arterial and prostatic urethral pressures were continuously monitored as basal values, i.a. administration of NA was made at intervals of 20 minutes.
(§6) The NA doses were chosen to produce an increase of at least 100% in urethral pressure. The test compounds were administered intravenously in a cumulative manner with intervals of 15-20 minutes between administrations. […]

[8] = system: prostatic urethral contractions induced by noradrenaline; test: Urethral contractions induced by noradrenaline injection in anaesthetized dogs after intravenous administration; assay type: in vivo; conditions: dog, i.v.
Description: as §4, §5, §6

Ki [3] [nM]	Ki [4] [nM]	Ki [5] [nM]	Ki [6] [nM]	pKb, functional affinity for the α1L adrenoceptor subtype (α1L adrenoceptor)	Compound	DBP ED25 (dose inducing a 25% decrease in diastolic blood pressure) (diastolic blood pressure [1]) [µg/kg]	UC ID50 NA (dose inhibiting by 50% the urethral contractions induced by noradrenaline) [2] [µg/kg]	DBP ED25 (dose inducing a 25% decrease in diastolic blood pressure) (diastolic blood pressure [7]) [µg/kg]	UC ID50 NA (dose inhibiting by 50% the urethral contractions induced by noradrenaline) [8] [µg/kg]
–	–	–	–	–	COc1ccccc1N1CCN(CCCNC(=O)c2cccc3c(=O)c(C)c(-c4ccccc4)oc23)CC1 [Compound A]	243	2.4	–	–
1080	48.2	3.19	39.3	–	COc1ccc(OCC(F)(F)F)cc1N1CCN(CCCNC(=O)c2csc3c(=O)cc(-c4ccccc4)oc23)CC1 [Example 6, N-{3-[4-[2-Methoxy-5-(2,2,2-trifluoroethoxy)phenyl]-1-piperazinyl]propyl}-7-oxo-5-phenyl7H-thieno[3,2-b]pyran-3-carboxamide]	–	–	–	–
88.5	2.45	0.17	3.47	8.66	O=C(NCCCN1CCN(c2ccc(F)cc2OCC(F)(F)F)CC1)c1csc2c(=O)cc(-c3ccccc3)oc12 [Example 7, N-{3-[4-[4-Fluoro-2-(2,2,2-trifluoroethoxy)phenyl]-1-piperazinyl]propyl}-7-oxo-5-phenyl-7H-thieno[3,2-b]pyran-3-carboxamide]	–	–	–	–
26.2	3.6	0.6	23.2	7.92	COc1ccccc1N1CCN(CCCNC(=O)c2csc3c(=O)cc(C(F)(F)F)oc23)CC1 [Example 4, N-{3-[4-(2-Methoxyphenyl)-1-piperazinyl]propyl}-7-oxo-5-trifluoromethyl-7H-thieno[3,2b]pyran-3-carboxamide]	–	–	–	–
–	4.12	0.58	2.53	–	COc1ccc(Cl)cc1N1CCN(CCCNC(=O)c2csc3c(=O)cc(-c4ccccc4)oc23)CC1 [Example 1, N-{3-[4-(5-Chloro-2-methoxyphenyl)1-piperazinyl]propyl}-7-oxo-5-phenyl-7H-thieno[3,2-b]Pyran-3-carboxamide]	–	–	280	5.3
